According to patent publication US10865216B2, “Tricyclic Gyrase inhibitors” (MERCK SHARP & DOHME CORP., priority 2012, dated 2020):
In brackets after ≈: the same amount, converted by molar mass.

Assays:
S. aureus ATCC 13709 = test: MIC, S. aureus ATCC 13709; assay type: cell-based; details: Staphylococcus aureus, ATCC13709, S. aureus; Alamar Blue read after overnight incubation at 35° C.; read-out: MIC Sa
E. coli ATCC 25922 = test: MIC, E. coli ATCC 25922; assay type: cell-based; details: Escherichia coli, ATCC25922, E. coli; Alamar Blue read after overnight incubation at 35° C.; read-out: MIC Ec

| MIC (S. aureus ATCC 13709) | MIC (E. coli ATCC 25922) | Structure (SMILES) |
| --- | --- | --- |
| ≤ 0.5 µg/mL | ≤ 0.5 µg/mL | CNc1cccc2c1[nH]c1nc(Oc3cnc4cccnc4c3)cc(N3CC4C(N)C4C3)c12 (stereo not shown) [Compound 3.34] |
| ≤ 0.5 µg/mL | 1 µg/mL (≈ 2.4 µM) | CNc1cccc2c1[nH]c1nc(Oc3cncc(OC)c3)cc(N3CC4C(N)C4C3)c12 (stereo not shown) [Compound 3.35] |
| ≤ 0.5 µg/mL | 2 µg/mL (≈ 4.54 µM) | CNc1cccc2c1[nH]c1nc(Oc3cnc4c(c3)ncn4C)cc(N3CC4C(N)C4C3)c12 (stereo not shown) [Compound 3.36] |
| 2 µg/mL (≈ 5.19 µM) | > 64 µg/mL | CNc1cccc2c1[nH]c1nc(Oc3cncnc3)cc(Oc3cncnc3)c12 [Compound 3.37] |
| 1 µg/mL (≈ 2.42 µM) | > 32 µg/mL | CNc1cccc2c1[nH]c1nc(Oc3cnc(C)nc3)cc(Oc3cnc(C)nc3)c12 [Compound 3.38] |
| 2 µg/mL (≈ 4.83 µM) | 64 µg/mL (≈ 154 µM) | CNc1cccc2c1[nH]c1nc(Oc3ccc[n+]([O-])c3)cc(Oc3cnc(C)nc3)c12 [Compound 3.39] |
| ≤ 0.5 µg/mL | 1 µg/mL (≈ 2.35 µM) | CNc1cccc2c1[nH]c1nc(Oc3cncc(C#N)c3)cc(N3CCC4(CC4N)C3)c12 (stereo not shown) [Compound 3.40] |
| ≤ 0.5 µg/mL | ≤ 0.5 µg/mL | CNc1cccc2c1[nH]c1nc(Oc3cncnc3)cc(N3CCC4(CC4N)C3)c12 (stereo not shown) [Compound 3.41] |
| ≤ 0.5 µg/mL | 2 µg/mL (≈ 4.81 µM) | CNc1cccc2c1[nH]c1nc(Oc3cnc(C)nc3)cc(N3CCC4(CC4N)C3)c12 (stereo not shown) [Compound 3.42] |
| ≤ 0.5 µg/mL | ≤ 0.5 µg/mL | CNc1cccc2c1[nH]c1nc(Oc3cncnc3)cc(N3CC(N)C4(CC4)C3)c12 (stereo not shown) [Compound 3.45] |
| 2 µg/mL (≈ 4.81 µM) | 4 µg/mL (≈ 9.63 µM) | CNc1cccc2c1[nH]c1nc(Oc3cncnc3)cc(N3C[C@@H](NC)C4(CC4)C3)c12 [Compound 3.46] |
| ≤ 0.5 µg/mL | ≤ 0.5 µg/mL | CNc1cccc2c1[nH]c1nc(Oc3cncnc3)cc(N3C[C@H](NC)C4(CC4)C3)c12 [Compound 3.47] |
| ≤ 0.5 µg/mL | ≤ 0.5 µg/mL | CNc1cccc2c1[nH]c1nc(Oc3cnc(C)nc3)cc(N3C[C@H](NC)C4(CC4)C3)c12 [Compound 3.49] |
| ≤ 0.5 µg/mL | 2 µg/mL (≈ 4.78 µM) | CNc1cccc2c1[nH]c1nc(Oc3cncc(F)c3)cc(N3CC(N)C4(CC4)C3)c12 (stereo not shown) [Compound 3.50] |
| ≤ 0.5 µg/mL | ≤ 0.5 µg/mL | CNc1cccc2c1[nH]c1nc(Oc3cnc4cccnc4c3)cc(N3CC(N)C4(CC4)C3)c12 (stereo not shown) [Compound 3.52] |
| 64 µg/mL (≈ 145 µM) | > 64 µg/mL | CNc1cccc2c1[nH]c1nc(Oc3cncc(C#N)c3)cc(N3CCN(CCN)CC3)c12 [Compound 3.55] |

Second part, the molecule before the results:

| Structure (SMILES) | MIC (S. aureus ATCC 13709) | MIC (E. coli ATCC 25922) |
| --- | --- | --- |
| CNc1cccc2c1[nH]c1nc(Oc3cncc(C#N)c3)cc(N3CC4C(N)C4C3)c12 (stereo not shown) [Compound 3.27] | 1 µg/mL (≈ 2.43 µM) | 4 µg/mL (≈ 9.72 µM) |
| CNc1cccc2c1[nH]c1nc(Oc3cncnc3)cc(N3CC4C(N)C4C3)c12 (stereo not shown) [Compound 3.28] | 1 µg/mL (≈ 2.58 µM) | 2 µg/mL (≈ 5.16 µM) |
| CNc1cccc2c1[nH]c1nc(Oc3cnc(C)nc3)cc(N3CC4C(N)C4C3)c12 (stereo not shown) [Compound 3.29] | ≤ 0.5 µg/mL | ≤ 0.5 µg/mL |
| CNc1cccc2c1[nH]c1nc(Oc3ccc[n+]([O-])c3)cc(N3CC4C(N)C4C3)c12 (stereo not shown) [Compound 3.30] | 16 µg/mL (≈ 39.8 µM) | 16 µg/mL (≈ 39.8 µM) |
| CNc1cccc2c1[nH]c1nc(Oc3ccc4nccnc4c3)cc(N3CC4C(N)C4C3)c12 (stereo not shown) [Compound 3.31] | 2 µg/mL (≈ 4.57 µM) | 8 µg/mL (≈ 18.3 µM) |
| CNc1cccc2c1[nH]c1nc(Oc3cnc(N)nc3)cc(N3CC4C(N)C4C3)c12 (stereo not shown) [Compound 3.32] | ≤ 0.5 µg/mL | 2 µg/mL (≈ 4.97 µM) |
| CNc1cccc2c1[nH]c1nc(Oc3cncc(F)c3)cc(N3CC4C(N)C4C3)c12 (stereo not shown) [Compound 3.33] | ≤ 0.5 µg/mL | 1 µg/mL (≈ 2.47 µM) |
| CNc1cccc2c1[nH]c1nc(Oc3cncc(C#N)c3)cc(N3CC(N)C4(CC4)C3)c12 (stereo not shown) [Compound 3.43] | ≤ 0.5 µg/mL | 1 µg/mL (≈ 2.35 µM) |
| CNc1cccc2c1[nH]c1nc(Oc3cncc(C#N)c3)cc(N3C[C@@H](NC)C4(CC4)C3)c12 [Compound 3.44] | 8 µg/mL (≈ 18.2 µM) | 16 µg/mL (≈ 36.4 µM) |
| CNc1cccc2c1[nH]c1nc(Oc3cnc(C)nc3)cc(N3C[C@@H](NC)C4(CC4)C3)c12 [Compound 3.48] | 2 µg/mL (≈ 4.66 µM) | 8 µg/mL (≈ 18.6 µM) |
| CNc1cccc2c1[nH]c1nc(Oc3cncc(F)c3)cc(N3C[C@@H](NC)C4(CC4)C3)c12 [Compound 3.51] | 8 µg/mL (≈ 18.5 µM) | 32 µg/mL (≈ 74 µM) |
| CNc1cccc2c1[nH]c1nc(Oc3cncnc3)cc(N3CCN(Cc4ccccn4)CC3)c12 [Compound 3.54] | 8 µg/mL (≈ 17.1 µM) | > 32 µg/mL |
| CNc1cccc2c1[nH]c1nc(Oc3cncnc3)cc(N3CCN(CCN)CC3)c12 [Compound 3.56] | > 64 µg/mL | > 64 µg/mL |
| CNc1cccc2c1[nH]c1nc(Oc3cncc(C#N)c3)cc(N3CCN(CCN4CCOCC4)CC3)c12 [Compound 3.59] | 4 µg/mL (≈ 7.8 µM) | > 64 µg/mL |
| CNc1cccc2c1[nH]c1nc(Oc3cncnc3)cc(N3CCN(CCN4CCOCC4)CC3)c12 [Compound 3.60] | 8 µg/mL (≈ 16.4 µM) | > 64 µg/mL |
| CNc1cccc2c1[nH]c1nc(Oc3cncnc3)cc(N3C[C@@H]4CNC[C@H]4C3)c12 [Compound 3.61] | 4 µg/mL (≈ 9.96 µM) | 16 µg/mL (≈ 39.9 µM) |
